In article PMC6588697, “Lugdunin amplifies innate immune responses in the skin in synergy with host- and microbiota-derived factors” (Nature Communications, 2019):

Columns and labels:
E. coli = test: Antimicrobial testing (CFU) against E. coli; assay type: cell-based, Escherichia coli; details: 3 h, mean
P. mirabilis = test: Antimicrobial testing (CFU) against P. mirabilis; assay type: cell-based, Proteus mirabilis; details: 3 h, mean
Description: (§1) For bactericidal testing, logarithmically growing staphylococci were resuspended in PBS (Sigma) containing 0.1% TSB (Carl Roth) and colony-forming unit (CFU) was adjusted to 3 × 10^6 CFU/mL. Different concentrations of single peptides and their combinations were diluted in PBS containing 0.1% TSB and incubated with bacteria in triplicates for 3 h at 37 °C and 150 rpm orbital shaking. Subsequently, serial dilutions (10^–1–10^–4) of the bacterial suspensions were prepared in PBS and 20 µL of each dilution was spotted in duplicates onto TSB plates and incubated at 37 °C overnight. The next day, the number of CFU was analyzed and the percentage of viable bacteria was determined by normalizing to the untreated control (100%). Results are illustrated in a S. aureus killing curve. In each experiment, negative control replicates (PBS + 0.1% TSB) as well as sterility control replicates were included.
(§2) Supplementary Figure 7: Efficiency of Lugdunin and DCD -1(L) combinations in 107 […]
(§3) logarithmically grown bacteria were incubated with indicated combinations of 109 lugdunin and DCD-1(L) in PBS containing 0.1% TSB at 37 °C orbital shaking. After 3 110 hours of incubation several dilutions of the bacterial suspensions were plated onto TSB 111 agar pl ates and incubated over night at 37 °C. The next day bacterial CFU were 112 counted. Each experiment was performed in triplicates. Data represent the mean 113 percentage of CFU normalized to the untreated control. Data represent the mean of at 114 least three independent experiments. 115
(§4) (1 picture or pasted object on this page, not shown here)

S. epidermidis = test: Antimicrobial testing (CFU) against S. epidermidis; assay type: cell-based, Staphylococcus epidermidis; details: 3 h, mean
Description: as §1, §2, §3, §4

B. subtilis = test: Antimicrobial testing (CFU) against B. subtilis; assay type: cell-based, Bacillus subtilis; details: for B. subtilis CFU normalized to untreated control (1,00): 3 h, mean
Description: as §1, §2, §3, §4

Q: Lugdunin was tested. Which “E. coli CFU normalized to untreated control (1,00)” value (shortened to “E. coli CFU normalized”) (E. coli; single peptide 1 µM) did it give?
A: 1,05

Q: What about the “E. coli CFU normalized” value (E. coli; single peptide 2 µM) of the same substance?
A: 1,34

Q: And the “E. coli CFU normalized” value (E. coli; single peptide 3 µM)?
A: 1,27

Q: And the “P. mirabilis CFU normalized to untreated control (1,00)” value (“P. mirabilis CFU normalized” below) (P. mirabilis; single peptide 1 µM)?
A: 1,13

Q: What about the “P. mirabilis CFU normalized” value (P. mirabilis; single peptide 2 µM) of the same substance?
A: 0,84

Q: What about the “P. mirabilis CFU normalized” value (P. mirabilis; single peptide 3 µM) of the same substance?
A: 0,98

Q: And the “S. epidermidis CFU normalized to untreated control (1,00)” value (shortened to “S. epidermidis CFU normalized”) (S. epidermidis; single peptide 1 µM)?
A: 1,08

Q: What about the “S. epidermidis CFU normalized” value (S. epidermidis; single peptide 2 µM) of the same substance?
A: 0,86

Q: And the “S. epidermidis CFU normalized” value (S. epidermidis; single peptide 3 µM)?
A: 1,20

Q: And the “B. subtilis CFU normalized to untreated control (1,00)” value (shortened to “B. subtilis CFU normalized”) (B. subtilis; single peptide 1 µM)?
A: 0,81

Q: And the “B. subtilis CFU normalized” value (B. subtilis; single peptide 2 µM)?
A: 0,60

Q: What about the “B. subtilis CFU normalized” value (B. subtilis; single peptide 3 µM) of the same substance?
A: 0,44

Q: And the “susceptibility of B. subtilis (in words)” value (B. subtilis; text to Supp Fig 7)?
A: susceptible

Q: For “SSLLEKGLDGAKKAVGGLGKLGKDAVEDLESVGKGAVHDVKDVLDSV [DCD-1, dermcidin-derived human AMP of eccrine sweat glands]”, which “E. coli CFU normalized” value (E. coli; single peptide 1 µM) is on record?
A: 1,31

Q: What about the “E. coli CFU normalized” value (E. coli; single peptide 2 µM) of the same substance?
A: 1,87

Q: And the “P. mirabilis CFU normalized” value (P. mirabilis; single peptide 1 µM)?
A: 1,05

Q: What about the “P. mirabilis CFU normalized” value (P. mirabilis; single peptide 2 µM) of the same substance?
A: 0,98

Q: And the “S. epidermidis CFU normalized” value (S. epidermidis; single peptide 1 µM)?
A: 1,51

Q: What about the “S. epidermidis CFU normalized” value (S. epidermidis; single peptide 2 µM) of the same substance?
A: 0,94

Q: What about the “B. subtilis CFU normalized” value (B. subtilis; single peptide 1 µM) of the same substance?
A: 1,14

Q: And the “B. subtilis CFU normalized” value (B. subtilis; single peptide 2 µM)?
A: 1,04

Q: Which “E. coli CFU normalized” value (E. coli; single peptide 1 µM) does the source give for “SSLLEKGLDGAKKAVGGLGKLGKDAVEDLESVGKGAVHDVKDVLDSVL [DCD-1L, dermcidin-derived human AMP of eccrine sweat glands]” here?
A: 1,26

Q: What about the “E. coli CFU normalized” value (E. coli; single peptide 2 µM) of the same substance?
A: 1,92

Q: What about the “P. mirabilis CFU normalized” value (P. mirabilis; single peptide 1 µM) of the same substance?
A: 0,95

Q: And the “P. mirabilis CFU normalized” value (P. mirabilis; single peptide 2 µM)?
A: 1,10

Q: And the “S. epidermidis CFU normalized” value (S. epidermidis; single peptide 1 µM)?
A: 1,43

Q: And the “S. epidermidis CFU normalized” value (S. epidermidis; single peptide 2 µM)?
A: 1,33

Q: And the “B. subtilis CFU normalized” value (B. subtilis; single peptide 1 µM)?
A: 0,96

Q: What about the “B. subtilis CFU normalized” value (B. subtilis; single peptide 2 µM) of the same substance?
A: 0,63
